Measured values: ChEMBL document CHEMBL1909294, “Translating clinical findings into knowledge in drug safety evaluation--drug induced liver injury prediction system (DILIps)” (PLoS Comput Biol, 2011)

Experiments:
[1] = tested on: Hepatotoxicity;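 as to HepSE bilirubinemia: bilirubinemia hepatic side effect score drawn from the DILIps training data, a prediction system for drug-induced liver injury; call rule not given here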;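 as to HepSE cholecystitis: Cholecystitis-related hepatic side effect score drawn from the DILIps (drug-induced liver injury prediction) training data set; call rule not given here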;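 as to HepSE cholelithiasis: hepatic side effect score for cholelithiasis, drawn from the DILIps training data for predicting drug-induced liver injury; call rule not given here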;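 as to HepSE cirrhosis: cirrhosis hepatic side effect score taken from the DILIps (drug-induced liver injury prediction) training set; call rule not given here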;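 as to HepSE elevated liver function tests: hepatic side effect score for raised liver function tests, as recorded in the DILIps training set used for predicting drug-induced liver injury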; as to HepSE hepatic failure: call rule not given here;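 as to HepSE hepatomegaly: hepatic side effect score for hepatomegaly, taken from the training set of the DILIps drug-induced liver injury prediction system; call rule not given here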
[2] = tested on: Hepatotoxicity; remark: listed apart in the source;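 as to HepSE bilirubinemia: bilirubinemia hepatic side effect score drawn from the DILIps training data, a prediction system for drug-induced liver injury; call rule not given here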;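 as to HepSE cholecystitis: Cholecystitis-related hepatic side effect score drawn from the DILIps (drug-induced liver injury prediction) training data set; call rule not given here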;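 as to HepSE cholelithiasis: hepatic side effect score for cholelithiasis, drawn from the DILIps training data for predicting drug-induced liver injury; call rule not given here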;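 as to HepSE cirrhosis: cirrhosis hepatic side effect score taken from the DILIps (drug-induced liver injury prediction) training set; call rule not given here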;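 as to HepSE elevated liver function tests: hepatic side effect score for raised liver function tests, as recorded in the DILIps training set used for predicting drug-induced liver injury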; as to HepSE hepatic failure: call rule not given here
[3] = tested on: Hepatotoxicity; remark: listed apart in the source;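 as to HepSE bilirubinemia: bilirubinemia hepatic side effect score drawn from the DILIps training data, a prediction system for drug-induced liver injury; call rule not given here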;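 as to HepSE cholecystitis: Cholecystitis-related hepatic side effect score drawn from the DILIps (drug-induced liver injury prediction) training data set; call rule not given here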;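 as to HepSE cholelithiasis: hepatic side effect score for cholelithiasis, drawn from the DILIps training data for predicting drug-induced liver injury; call rule not given here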;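 as to HepSE cirrhosis: cirrhosis hepatic side effect score taken from the DILIps (drug-induced liver injury prediction) training set; call rule not given here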;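 as to HepSE elevated liver function tests: hepatic side effect score for raised liver function tests, as recorded in the DILIps training set used for predicting drug-induced liver injury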; as to HepSE hepatic failure: call rule not given here
[4] = tested on: Hepatotoxicity; remark: listed apart in the source;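 as to HepSE bilirubinemia: bilirubinemia hepatic side effect score drawn from the DILIps training data, a prediction system for drug-induced liver injury; call rule not given here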;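 as to HepSE cholecystitis: Cholecystitis-related hepatic side effect score drawn from the DILIps (drug-induced liver injury prediction) training data set; call rule not given here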;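 as to HepSE cholelithiasis: hepatic side effect score for cholelithiasis, drawn from the DILIps training data for predicting drug-induced liver injury; call rule not given here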;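 as to HepSE cirrhosis: cirrhosis hepatic side effect score taken from the DILIps (drug-induced liver injury prediction) training set; call rule not given here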;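 as to HepSE elevated liver function tests: hepatic side effect score for raised liver function tests, as recorded in the DILIps training set used for predicting drug-induced liver injury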; as to HepSE hepatic failure: call rule not given here
[5] = tested on: Hepatotoxicity; remark: listed apart in the source; as to HepSE hepatic failure: call rule not given here
[6] = tested on: Hepatotoxicity; remark: listed apart in the source; as to HepSE hepatic failure: call rule not given here
[7] = tested on: Hepatotoxicity; remark: listed apart in the source
[8] = tested on: Hepatotoxicity; remark: listed apart in the source
[9] = tested on: Hepatotoxicity; remark: listed apart in the source
[10] = tested on: Hepatotoxicity; remark: listed apart in the source
[11] = tested on: Hepatotoxicity; remark: listed apart in the source
[12] = tested on: Hepatotoxicity; remark: listed apart in the source
[13] = tested on: Hepatotoxicity; remark: listed apart in the source
[14] = tested on: Hepatotoxicity; remark: listed apart in the source

Structure (SMILES) | HepSE_bilirubinemia [1] | HepSE_cholecystitis [2] | HepSE_cholelithiasis [3] | HepSE_cirrhosis [4] | HepSE_elevated liver function tests [5] | HepSE_hepatic failure [6] | HepSE_hepatic necrosis [7] | HepSE_hepatitis [8] | HepSE_hepatomegaly [9] | HepSE_jaundice [10] | HepSE_liver disease [11] | HepSE_liver fatty [12] | HepSE_liver function tests abnormal [13] | HepSE_Combined Scores [14] | also measured
CO[C@@]1(NC(=O)Cc2cccs2)C(=O)N2C(C(=O)O)=C(COC(N)=O)CS[C@@H]21 [CEFOXITIN] | 0 | 0 | 0 | 0 | 0 | 0 | 0 | 0 | 0 | 1 | 0 | 0 | 0 | 1 | –
COCC1=C(C(=O)O)N2C(=O)[C@@H](NC(=O)/C(=N\OC)c3csc(N)n3)[C@H]2SC1 [CEFPODOXIME] | 0 | 0 | 0 | 0 | 0 | 0 | 0 | 0 | 0 | 0 | 0 | 0 | 0 | 0 | –
CC=CC1=C(C(=O)O)N2C(=O)[C@@H](NC(=O)[C@H](N)c3ccc(O)cc3)[C@H]2SC1 [CEFPROZIL] | 0 | 0 | 0 | 0 | 0 | 0 | 0 | 0 | 0 | 1 | 0 | 0 | 0 | 1 | –
CC(C)(O/N=C(\C(=O)N[C@@H]1C(=O)N2C(C(=O)[O-])=C(C[n+]3ccccc3)CS[C@H]12)c1csc(N)n1)C(=O)O [CEFTAZIDIME] | 1 | 0 | 0 | 0 | 0 | 0 | 0 | 0 | 0 | 1 | 0 | 0 | 0 | 2 | –
Nc1nc(/C(=C/CC(=O)O)C(=O)N[C@@H]2C(=O)N3C(C(=O)O)=CCS[C@H]23)cs1 [CEFTIBUTEN] | 0 | 0 | 0 | 0 | 0 | 0 | 0 | 0 | 0 | 1 | 0 | 0 | 0 | 1 | –
CO/N=C(\C(=O)N[C@@H]1C(=O)N2C(C(=O)O)=CCS[C@H]12)c1csc(N)n1 [CEFTIZOXIME] | 0 | 0 | 0 | 0 | 0 | 0 | 0 | 0 | 0 | 0 | 0 | 0 | 0 | 0 | –
CO/N=C(\C(=O)N[C@@H]1C(=O)N2C(C(=O)O)=C(CSc3nc(=O)c(=O)[nH]n3C)CS[C@H]12)c1csc(N)n1 [CEFTRIAXONE] | 0 | 0 | 0 | 0 | 0 | 0 | 0 | 0 | 0 | 0 | 0 | 0 | 0 | 0 | –
CO/N=C(\C(=O)N[C@@H]1C(=O)N2C(C(=O)O)=C(COC(N)=O)CS[C@H]12)c1ccco1 [CEFUROXIME] | 0 | 0 | 0 | 0 | 0 | 0 | 0 | 1 | 0 | 1 | 0 | 0 | 0 | 2 | –
Cc1ccc(-c2cc(C(F)(F)F)nn2-c2ccc(S(N)(=O)=O)cc2)cc1 [CELECOXIB] | – | – | – | – | – | – | – | – | – | – | – | – | – | – | HepSE_bilirubinemia ([1]; Liver): 0; HepSE_cholecystitis ([2]; Liver): 0; HepSE_cholelithiasis ([3]; Liver): 1; HepSE_cirrhosis ([4]; Liver): 0; HepSE_elevated liver function tests ([5]; Liver): 0; HepSE_hepatic failure ([6]; Liver): 1; HepSE_hepatic necrosis ([7]; Liver): 0; HepSE_hepatitis ([8]; Liver): 1; HepSE_hepatomegaly ([9]; Liver): 0; HepSE_jaundice ([10]; Liver): 1; HepSE_liver disease ([11]; Liver): 0; HepSE_liver fatty ([12]; Liver): 0; HepSE_liver function tests abnormal ([13]; Liver): 1; HepSE_Combined Scores ([14]; Liver): 5
CC1=C(C(=O)O)N2C(=O)[C@@H](NC(=O)[C@H](N)C3=CCC=CC3)[C@H]2SC1 [CEPHRADINE] | 0 | 0 | 0 | 0 | 0 | 0 | 0 | 0 | 0 | 0 | 0 | 0 | 0 | 0 | –
COCc1c(C(C)C)nc(C(C)C)c(/C=C/[C@@H](O)C[C@@H](O)CC(=O)O)c1-c1ccc(F)cc1 [CERIVASTATIN] | 0 | 0 | 0 | 1 | 0 | 0 | 1 | 1 | 0 | 1 | 0 | 0 | 0 | 4 | –
O=C(O)CCCc1ccc(N(CCCl)CCCl)cc1 [CHLORAMBUCIL] | 0 | 0 | 0 | 0 | 0 | 0 | 0 | 0 | 0 | 1 | 0 | 0 | 0 | 1 | –
O=C(N[C@H](CO)[C@H](O)c1ccc([N+](=O)[O-])cc1)C(Cl)Cl [CHLORAMPHENICOL] | 0 | 0 | 0 | 0 | 0 | 0 | 0 | 0 | 0 | 0 | 0 | 0 | 0 | 0 | –
